Experiments:
[1] = Pharmacokinetic study, bronchoalveolar lavage fluid (BALF); assay type: in vivo, Sprague Dawley rats
Experimental: All PK studies were also conducted with 8–10-week-old male and female Sprague Dawley rats. An additional nine animals/sex/dose were used for PK analysis and blood (approximately 0.3 mL each) was collected from each rat on days 1 and 3 of the treatment period at time points of 5, 30, 60, 90, 120, and 180 min, and 6, 12 h, and 24 h post dose that were randomized to provide a total of three samples/sex for each time point. Samples were collected by jugular venipuncture and the samples were collected into tubes containing the anticoagulant, K3EDTA. The collection of BALF was limited to the terminal time points of 6 h, 12 h, and 24 h. AVR-48 concentrations in the blood and BALF were determined using LC/MS/MS analysis developed in house. PK parameters were estimated using Phoenix pharmacokinetic software (Certara, Princeton, NJ, USA) using a non-compartmental approach consistent with the IV bolus injection.

CLP-induced sepsis mice = test: CLP-induced lung and organ injury, histopathology scoring; assay type: in vivo, C57BL6/J mice
Experimental: For CLP-induced lung injury, CLP was performed as previously described by us. As antibiotics are the standard of care in sepsis patients, one dose of imipenem was given SC at 5 mg/kg 30 min after the procedure, followed by two doses of AVR-48 (10 mg/kg, IV) at 16 h and 24 h following the surgery, and sacrificed after 72 h. The sham mice (controls) had the abdominal cavity opened, the cecum was not perforated, and the peritoneum was stitched back.
H&E staining was performed on 5 µm paraffin lung tissue sections following standardized methods. Four to five random images per lung and 4–5 lungs per experimental group were characterized for lung injury score analysis.
Two different scoring systems were used for lung injury scoring, as the experiments were done at different times. The LPS-/hyperoxia-induced ALI scoring was done by DS, while the CLP-induced lung and other organs’ scoring was done by two additional independent investigators (PD and BA). For the hyperoxia- and LPS-induced lung injury, scoring was done on histological sections based on neutrophil infiltration and epithelial injury using the methods as described before with modifications. Four to five random images per lung and 4–5 lungs per experimental group were characterized for lung injury score analysis. We used a 0–4 scoring system in which 0 = no infiltration/injury, 1 = minimal infiltration/injury to 25% of the field, 2 = mild infiltration/injury […] of the field, 3 = moderate infiltration/injury to 75% of the field, and 4 = severe infiltration/diffuse injury. For the CLP-induced ALI, scoring was done following the methodology as reported earlier by a qualified pathologist (BA) in masked manner. Lungs were harvested from all the mice after the endpoint, and lung injury was scored based on the criteria of alveolar damage and vascular congestion and hemorrhage. As CLP-induced sepsis also results in damage to the rest of the viscera, which can contribute to ALI/ARDS, other organs were also scored as above, to determine the recovery potential of AVR-48 as a candidate drug. The following (cells) were taken into account while scoring the injury level followed by recovery after treatment in other vital organs: heart (myocardium), kidney (glomeruli, tubules), gut (mucosal cells, enterocytes), spleen (lymphoid follicles), liver (hepatocytes), brain (neuronal damage), testis (Seminiferous tubules), and lymph nodes. The final scores were calculated on the basis of total percentage of the damaged/recovered area and by the number of areas/High power field (HPF) as reported above.

[2] = Toxicology study of AVR-48, IV dose escalation and repeat dose phases; assay type: in vivo, Sprague Dawley rats
Experimental: For the PK study of AVR-48 in rats, a formulation consisting of 10% DMSO, 20% tetraglycol, 20% PEG 400, and 50% sterile water was developed. Each preparation was made on the same day of dose administration. The components of the control/vehicle item formulation were added sequentially. Briefly, the appropriate volume of DMSO (10% of the final volume) was measured into a container followed by gradual addition of PEG 400 (20% of the final volume) and sterile water (50% of the final volume) to make up the volume and mixed thoroughly till completely dissolved. The final solution was filtered through a 0.22 µm membrane filter (Millipore Millex® GP PES, St. Louis, MO, USA) into a sterile vial.
The toxicology study of AVR-48 was performed with both 8–10 week old male and female Sprague Dawley rats, in two phases following standard FDA guidance [M3(R2)R]. AVR-48 was injected IV at a volume of 5 mL/kg of body weight after reconstituting in 10% DMSO, 20% tetraglycol, and 20% PEG 400 in sterile water. In the dose escalation phase, 75 to 100 mg/kg per day was administered as two separate doses approximately 6–7 h apart by IV slow bolus injection at a volume of 5 mL/kg of body weight. Three animals of each sex were dosed at each dose level. During the repeat dose phase, daily doses of 0, 40, and 80 mg/kg/day were administered as two divided doses delivered by slow bolus injection at a volume of 5 mL/kg of body weight approximately 6–7 h apart. Study animals (n = 5/sex/dose) were treated for three days with a total of six doses for AVR-48. Twelve to eighteen hours after the last dose was administered, animals were euthanized and blood collected for analysis of clinical chemistry and other hematological parameters. Detailed necropsy examinations were performed on each animal, and tissues were collected and fixed with standard fixatives for histological analysis and interpretation.

hPBMC = tested on: hPBMC; design: method as in earlier work; conditions: cited from earlier work
[3] = AVR-48 10 mg/kg IV x2 after CLP
[4] = after CLP, Mean ± SEM, CLP alone 4.8± 0.2

CC(=O)N[C@H]1[C@H](Oc2ccc([N+](=O)[O-])cc2)O[C@H](CO)[C@@H](O)[C@@H]1O [AVR-48, N-((2S,3R,4R,5S,6R)-4,5-dihydroxy-6-(hydroxymethyl)-2-(4-nitrophenoxy)tetrahydro-2H-pyran-3-yl) acetamide]
AVR-48 in BALF ([1]; 6 h post administration): measurable concentrations | Kp at 6 h ([1]; Sprague Dawley, rat, BALF (bronchoalveolar lavage fluid) relative to plasma, intravenous, 6 h time point, read-out: BALF-to-plasma ratio): 2.81 to 9.08 | AVR-48 in BALF ([1]; by 12 h): below the limit of detection | lung injury score vs CLP group (CLP-induced sepsis mice; AVR-48 10 mg/kg IV at 16 h and 24 h, sacrificed after 72 h, p < 0.001): significant recovery | appearance of the lung (histopathology) (CLP-induced sepsis mice; [3]): decreased inflammation and hemorrhage | histopathological changes in other vital organs vs CLP-only group (CLP-induced sepsis mice; [3]): dramatic improvement | Injury score: Brain, Neuronal Damage (CLP-induced sepsis mice; [4]): 3.6± 0.245 | Injury score: Brain, Vascular Congestion & Hemorrhage (CLP-induced sepsis mice; [4]): 3.4± 0.245 | Injury score: Gut, MVD (CLP-induced sepsis mice; [4]): 3.6± 0.245 | Injury score: Gut, Vascular Congestion & Hemorrhage (CLP-induced sepsis mice; [4]): 3.6± 0.245 | Injury score: Heart, Myocardial Damage (CLP-induced sepsis mice; [4]): 3.4± 0.245 | Injury score: Heart, Vascular Congestion & Hemorrhage (CLP-induced sepsis mice; [4]): 3.4± 0.4 | Injury score: Kidney, Glomerular Damage (CLP-induced sepsis mice; [4]): 3.6± 0.245 | Injury score: Kidney, Glomerular Injury (CLP-induced sepsis mice; [4]): 3.6± 0.245 | Injury score: Kidney, Vascular Congestion & Hemorrhage (CLP-induced sepsis mice; [4]): 3.6± 0.245 | Injury score: Liver, Hepatocyte Injury (CLP-induced sepsis mice; [4]): 3.6± 0.245 | Injury score: Liver, Vascular Congestion & Hemorrhage (CLP-induced sepsis mice; [4]): 3.6± 0.245 | Injury score: Lung, Alveolar Damage (CLP-induced sepsis mice; [4]): 3.6± 0.245 | Injury score: Lung, Vascular Congestion and Hemorrhage (CLP-induced sepsis mice; [4]): 3.6± 0.245 | Injury score: Lymph Node, Follicular Damage (CLP-induced sepsis mice; [4]): 3.4± 0.245 | Injury score: Spleen, Vascular Congestion & Hemorrhage (CLP-induced sepsis mice; [4]): 3.6± 0.245 | Injury score: Testis, Tubular Damage (CLP-induced sepsis mice; [4]): 3.6± 0.245 | Injury score: Testis, Vascular Congestion & Hemorrhage (CLP-induced sepsis mice; [4]): 3.6± 0.245 | tolerability, repeat administration ([2]; 40 and 80 mg/kg/day as two daily doses of 20 and 40 mg/kg for three consecutive days, IV): well tolerated with no adverse clinical signs | hematology and clinical chemistry parameters ([2]; IV for three consecutive days, up to 80 mg/kg/day): no changes in any of the hematology or clinical chemistry parameters | MTD at 3 days ([2]; both sexes, Sprague Dawley, rat, in vivo, IV, two daily doses for three consecutive days, male and female rats): 80 mg/kg/day | NOAEL at 3 days ([2]; both sexes, Sprague Dawley, rat, in vivo, IV, two daily doses for three consecutive days, male and female rats, read-out: no observable adverse effect level (NOAEL)): 80 mg/kg/day | adverse signs ([2]; dose escalation, 75 mg/kg/day IV): No adverse signs were observed | mortality ([2]; dose escalation, 100 mg/kg total daily dose IV): A single animal that received a total daily dose of 100 mg/kg died | clinical signs ([2]; dose escalation, 100 mg/kg total daily dose, two IV bolus 6-7 h apart): clinical signs of hypoactivity, respiratory changes, changes in posture, and loss of motor coordination were observed | therapeutic window over the efficacious dose ([2]; rat MTD/NOAEL vs 10 mg/kg efficacious dose in mouse): ~8 fold | systemic gross observations at necropsy ([2]; repeat dose IV): no evidence of any AVR-48 related systemic gross observations at necropsy | TNF-α (hPBMC; in vitro hPBMC model): decreases TNF-α | IL-10 expression (hPBMC; with or without LPS): increased IL-10 expression

From PMC7961996, “Small Immunomodulatory Molecules as Potential Therapeutics in Experimental Murine Models of Acute Lung Injury (ALI)/Acute Respiratory Distress Syndrome (ARDS)” (International Journal of Molecular Sciences, 2021)
